Data published in patent US12070037B2, “Methods and compositions for bioprotection of potatoes from Streptomyces scabies” (THE ROYAL INSTITUTION FOR THE ADVANCEMENT OF …, priority 2018, dated 2024).

Tested on: Streptomyces scabies
Assay: agar well diffusion assay
Assay type: cell-based
Experimental: In addition, the antimicrobial activity of the crude extracts from Bacillus pumilus and Bacillus subtilis was assessed via agar well diffusion assay. A spore suspension of Streptomyces scabies was overlaid on PDA and the plates were allowed to air dry. A 50 μL drop of crude extracts from Bacillus pumilus (top), Bacillus pumilus (right), and Bacillus subtilis (left) were poured into agar well and a control solution was pour on the bottom of the agar well.
The concentrated material (crude extract) in the vessel was suspended in 10% acetonitrile (AcN/H2O, v/v) and frozen at −20° C. until further analysis. The crude extract was centrifuged (Sorvall Biofuge Pico, Mandel Scientific, ON, Canada) at 13,000 rpm for 30 min to remove insoluble particles. The supernatant was filter sterilized (PVDF, […], Fisher Scientific, Montreal, Canada) and tested for biological activity against Streptomyces scabies. The filtered extract was then loaded onto a C18 column (Restek™, Fisher Scientific, Montreal, Canada) and eluted with 20 mL of 10%, 20%, 40%, 60%, 80% and 100% acetonitrile and the fractions were collected. The eluted fractions under various concentrations of acetonitrile were lyophilized (SNL216V, Savant Instruments Inc., NY, USA), suspended in sterilized distilled water and tested for biological activity against Streptomyces scabies. The fraction showing an inhibition zone against Streptomyces scabies was selected for further fractionation by HPLC. The active fraction was stored in sterilized vials at 4° C. prior to HPLC analysis.
The antimicrobial activities of Micrococcin P1 at various concentrations were assessed via agar well diffusion assay. A spore suspension of Streptomyces scabies was overlaid on PDA and the plates were allowed to air dry. A 50 μL drop of Micrococcin P1 diluted in various concentrations were applied into agar well.

Micrococcin P1 was tested, and the “minimal amount giving growth inhibition zones” value (per well, in 50 μL, PDA, 3 days 30° C.) was no less than 31.25 ng, the “antimicrobial activity of the standard” value (tested for biological activity) was “showed antimicrobial activity against Streptomyces scabies” and the “dose dependence of antibacterial activities” value (up to 5 mg/L (4.37 μM), highest concentration tested) was “increased proportional to the Micrococcin P1 concentrations”.
